This is an account of results in patent US20240398831A1, “COMPOSITIONS COMPRISING SMALL MOLECULE REGULATORS OF TUMOR IMMUNITY AND METHODS OF USING SAME” (Duke University, priority 2021, published 2024).

Data set [1] in a line: Uterine wet weights in ovariectomized mice. The format is in vivo, mouse. Particulars: E2 pellets 0.01 mg/60 days vs placebo. As for the experimental part: ERα+ MCF7 cells served as a positive control. Cells were treated as either mock transfected or transfected with scrambled control or three different siRNA targeting Esr1. […] Esr1 was first normalized to Rplp0 and then Esr1 knockdown samples were normalized to a non-targeting control. RNA was collected from both cell lines after 48 hr of siRNA transfection. […] Mouse ovary served as a positive control. […] ERα+MCF7 cells served as a positive control (FIG. 5E, left). […] Data are expressed as individual data points and represented as mean±S.E.M. Significance was calculated by Student's t test or two-way ANOVA (FIGS. 5E-5F), followed by Bonferroni's multiple correction (**p<0.0001).
Ovarlectomy and subcutaneous pellet Insertion. Ovariectomy was performed as previously described (Nelson et al., Science 2013, 342, 1094-1098). Eight days prior to tumor inoculation, 7 weeks old C57BL/6J or 5 weeks old (iBP) female mice were subjected to ovariectomy or sham surgery. Mice were anesthetized in an inhalation chamber (2% Isoflurane) and maintained in half the dose of isoflurane (1%) via nose cone throughout the surgical process. Prior to surgery, mice were administered a 5 mg/kg dose of carprofen subcutaneously. […] The mouse was then removed from anesthesia and kept in a clean cage and monitored until conscious. The mice were monitored for recovery for 10 days.

The subject of another data set is B16F10 cells. Briefly: Quantitative PCR of ER target genes in melanoma cells. Particulars: E2 1 nM, 16 hr. In kind it is cell-based, mouse.
For another data set, the system named is iBP tumors. The experiment in a line: iBP autochthonous melanoma mouse model (tumor growth, flow cytometry). In kind it is in vivo. Particulars: E2 vs placebo. The text has this:
Mice. C57BL/BJ, LysMCre (B6.129P2-Lyz2^tm1(cre)lfo/J) Pmel (B6.Cg-Thy1^a/Cy Tg(TcraTcrb)8Rest/J) mice were from Jackson Laboratories (Bar Harbor, ME). Age matched mice were used for all the studies. LysMCre mice were bred to Esr1^f/f mice to generate Esr1^f/f; LysMCre and littermate control LysMCre and Esr1^f/f mice. iBP (Braf^V600E/WT, Pten^f/fmTyrCreERT2) mice were generated by crossing breeders Braf^WT/WT/Pten^f/f, mTyrCreERT2 mice to BRAF^V600E, Pten^f/f mice. The mice were housed in secure animal facility cages in 12 hour light:dark cycles at temperature around 25° C. and 70% humidity. Mice had access to ad-libitum food and water. NSG (NOD.Cg-Prkd^scid Il2rg^tm1Wjl/SzJ) mice were from the Division of Laboratory Animal Resources (Duke University). The NSG animals were fed with a GL3 diet and were kept in pathogen free conditions.
Tumor models and cells. The mouse B16F10 and Yumm5.2 cell lines were purchased from American Type Culture Collection (ATCC, Manassas, VA). The mouse melanoma cell line BPD6 was established from iBP as described elsewhere (Zhao et al., Immunity 2018, 48, 147-160). B16F10 and BPD6 cells were maintained in Dulbecco's Modified Eagle's Medium (DMEM) supplemented with 8% fetal bovine serum (FBS), 0.1 mM non-essential amino acids (NEAA) and 1 mM sodium pyruvate. YuMM5.2 cells were maintained in DMEM/F12 media supplemented with 10% FBS. The cells were replated 3 times/week at a confluency of 1:10 and were kept in a 37° C. incubator at 5% CO2. For subcutaneous tumor models B16F10 (5×10^4 or 1×10^5), YuMM5.2 (5×10^5), and BPD6 (5×10^5) cells were injected into the right flank of the mice. For iBP mice, tumors were induced with a single intradermal dose of 4-hydroxytamoxifen in DMSO (150 μg/mouse). Tumors were measured thrice weekly using an electronic caliper. Tumor volumes were calculated by the formula V=L×(W×W)/2. For iBP mouse tumors, volumes were calculated by the formula V=L×B×H. For tumor growth rate studies mice were euthanized when the tumors reached a maximum size of 2000 mm^3.
Ovarlectomy and subcutaneous pellet Insertion. Ovariectomy was performed as previously described (Nelson et al., Science 2013, 342, 1094-1098). Eight days prior to tumor inoculation, 7 weeks old C57BL/6J or 5 weeks old (iBP) female mice were subjected to ovariectomy or sham surgery. Mice were anesthetized in an inhalation chamber (2% Isoflurane) and maintained in half the dose of isoflurane (1%) via nose cone throughout the surgical process. Prior to surgery, mice were administered a 5 mg/kg dose of carprofen subcutaneously. The area below the ribs was shaved with an electronic razor and the skin was sterilized by rubbing with betadine and alcohol (3× alternating). A horizontal incision was made through the skin above the ovary fat pad, followed by a vertical incision through the abdominal muscle wall. The ovary was externalized and removed using a cauterizing scissors (or returned if sham). Fat pad was replaced, and muscle walls were opposed and sutured (1-2 stitches). Following suturing, 1 drop of bupivacaine (0.25%) was added on top of the incision site. The skin was opposed, and a wound clip was placed on the incision site. This was repeated for the other ovary. The mouse was then removed from anesthesia and kept in a clean cage and monitored until conscious. The mice were monitored for recovery for 10 days.
Single cell isolation from tumors. Tumors were isolated, minced on a petri dish in media (DMEM+5% FBS), and then enzymatically digested by the addition of 100 μg/mL DNase I (D5025-150KU, Sigma-Aldrich) and 1 mg/mL collagenase (Collagenase A, Cat #10103586001, Sigma-Aldrich) for 30 mins-45 mins. For iBP models, isolated tumors were sliced into large chunks and subjected to mechanical digestion in a gentleMACS Dissociator for 30 seconds twice. […]

The test system of a further data set is CD4+ and CD8+ T cells. Briefly: T cell proliferation assay and staining, direct treatment of T cells in vitro. In kind it is cell-based, mouse. As to conditions: E2 (1 nM)+fulvestrant (100 nM), 3 days. The text has this: FIG. 17C and FIG. 17H show the percentage of CD44^+CD69^+ activated CD8^+ T cells (FIG. 17C) and CD4^+ T cells (FIG. 17H) from experiments described above. FIG. 17D and FIG. 17I show the percentage of GZMB^+ activated CD8^+ T cells (FIG. 17D) and CD4^+ T cells (FIG. 17I) from experiments described above. FIG. 17E and FIG. 17J show the percentage of IFNγ^+ activated CD8^+ T cells (FIG. 17E) and CD4^+ T cells (FIG. 17J) from experiments described above. Data are expressed as individual data points and represented as mean±S.E.M. Significance was calculated by one way ANOVA.
T cell proliferation assay and staining. CD3+ T cells were isolated from the spleens of C57BL/6J or P-mel mice with magnetic bead-based T cell isolation kit (Cat #19851, StemCell Technologies). T cells from naïve mice were stained with 5 μM CFSE (Cat #C34554, ThermoFisher Scientific) for 5 minutes in PBS+5% CFS with rapid vortexing following which the cells were washed twice with PBS. Stained T cells were then counted and plated in 96-well plates coated with anti-CD3 antibody (0.5 μg/mL, Cat #19851, ThermoFisher Scientific) anti-CD28 antibody (1 μg/mL, Cat #16-0281-86, Thermo Fisher Scientific) at desired density (250,000 T cells/50,000 CD11b or BMDM) in the presence of IL2 (50 ng/mL) (Cat #212-12, PeproTech). […]

With 17β-estradiol [E2], the uterine wet weights result in data set [1] is on record as “increase”. In the data set on B16F10 cells, the “expression of classical ER target genes (Pgr and Cxc112)” value is “did not lead to changes”. Also, the tumor growth result in the data set with iBP tumors (ovariectomized iBP mice) is recorded as “accelerated tumor growth”. Further, in the data set with iBP tumors (flow cytometry), the “CD3+ T cell population, tumor-infiltrating” value is given as “overall decrease”; the “infiltration of immune cells (CD45+)” value is listed as “not impacted by treatment”; the number of monocytes entry is recorded as “trend was observed towards an increase”; the “ratio of intratumoral M1 (MHCII^hi CD206−) to M2 (MHCII^lo CD206+/hi) macrophages” value was “decreases”. The “total number of F480+ macrophages” value in the data set with iBP tumors (flow cytometry) is listed as “remaining unchanged”. The “CD4+ T cells, tumor-infiltrating” value in the data set on iBP tumors (flow cytometry, FIGS. 16B-16C show B16F10 and YuMM5.2) is “no significant changes”.
For the compound `C[C@]12CC[C@@H]3c4ccc(O)cc4C[C@@H](CCCCCCCCC[S+]([O-])CCCC(F)(F)C(F)(F)F)[C@H]3[C@@H]1CC[C@@H]2O` (stereo partly shown) [fulvestrant], the “proliferation or cytotoxic capabilities of CD4+ or CD8+ T cells” value in the data set with CD4+ and CD8+ T cells is “did not affect”.
